# Source: patent publication US11345701B1, “KRAS mutant protein inhibitors” (Jacobio Pharmaceuticals Co., Ltd., priority 2021, dated 2022)
# Key:
# [1] = target: HIS-KRAS(G12C) (Homo sapiens (Human), UniProt P01116, G12C); assay: SOS1 catalyzed nucleotide exchange assay (TR-FRET); format: biochemical
# Description: TR-FRET signals were then read on Tecan Spark multimode microplate reader. […] TR-FRET ratios for each individual wells were calculated by equation: TR-FRET ratio=(Signal F515/Signal F486)*10000. Then the data were analyzed using a 4-parameter logistic model to calculate IC50 values.
# [2] = Mouse pharmacokinetic study; format: in vivo, Balb/c mouse
# Description: The purpose of this study was to evaluate the pharmacokinetic properties of compounds in Balb/c mouse (♀) following single dose administration. The day before administration, mice were fasted overnight and free access to water. Six mice were needed for each compound and the six mice were divided into two groups (n=3/group), group A and group B. Mice in group A were treated with a single 3 mg/kg dose of compound (iv). Mice in group B were treated with a single 10 mg/kg dose of compound (po). For each mouse in group A, blood samples were collected at pre-dose, and at the time point of 0.083, 0.25, 0.5, 1, 2, 4, 6, 8 and 24 h post-dose. For each mouse in group B, blood samples were collected at pre-dose, and at the time point of 0.25, 0.5, 1, 2, 3, 4, 6, 8 and 24 h post-dose. Blood samples were placed on ice until centrifugation to obtain plasma samples. The plasma samples were stored at −80° C. until analysis. The concentration of compound in plasma samples was determined using a LC-MS/MS method.
# [3] = Dog pharmacokinetic study; format: in vivo, beagle dog; details: for CL / VSS / AUC0-24h / Cmax / Oral BA (F %): beagle dog; for CL / VSS: 1 mg/kg, iv; for AUC0-24h / Cmax / Oral BA (F %) / AUC0-24 h relative to the control compound Amg-510: 3 mg/kg, po
# Description: (§1) The purpose of this study was to evaluate the pharmacokinetic properties of compounds in beagle dog following single dose administration. The day before administration, dogs were fasted overnight and free access to water. Four beagle dogs were needed for each compound and the four dogs were divided into two groups, group A and group B (one male(♂) and one female (♀) in each group). Dogs in group A were treated with a single 1 mg/kg dose of compound (iv). Dogs in group B were treated with a single 3 mg/kg dose of compound (po). For dogs in group A, blood samples were collected at pre-dose, and at the time point of 0.083, 0.25, 0.5, 1, 2, 4, 6, 8 and 24 h post-dose. For dogs in group B, blood samples were collected at pre-dose, and at the time point of 0.25, 0.5, 1, 2, 4, 6, 8 and 24 h post-dose. Blood samples were placed on ice until centrifugation to obtain plasma samples. The plasma samples were stored at −80° C. until analysis. The concentration of compound in plasma samples was determined using a LC-MS/MS method.
# [4] = Cynomolgus monkey pharmacokinetic study; format: in vivo; details: for CL / VSS / AUC0-24h / Cmax / Oral BA (F %): cynomolgus monkey; for CL / VSS: 1 mg/kg, iv; for AUC0-24h / Cmax / Oral BA (F %) / AUC0-24 h relative to the control compound Amg-510: 3 mg/kg, po
# Description: as §1, with “cynomolgus monkey” for “beagle dog”, “monkeys” for “dogs”, “monkeys are” for “beagle dogs were”, “male (♂)” for “male(♂)”, “Monkeys” for “Dogs”
# [5] = tested on: NCI-H1373 (KRAS^G12C) xenograft; assay: Efficacy in NCI-H1373 (KRAS G12C) xenograft model; format: in vivo, BALB/c nude mice; details: 10 mg/kg, QD
# Description: NCI-H1373 (KRAS^G12C) cells (5.0E+06 cells) were injected subcutaneously into the right flank of female BALB/c nude mice (6-8 weeks) in a mixture with PBS and Matrigel (Corning) (PBS/Matrigel=1:1(v/v)). Mice were monitored daily and caliper measurements began when tumors became visible. Tumor volume was calculated by measuring two perpendicular diameters using the formula: (L*W^2)/2 in which L and W refer to the length and width tumor diameter respectively. When the average tumor volume reached 150-200 mm^3, mice were grouped randomly (n=6/group) and treated with compounds. Tumor volume and mice weight was measured twice a week during treatment (˜ 3 weeks). Tumor growth inhibition rates were calculated by TGI %=(1−(Vt−Vt0)/(Vc−Vc0))*100%, wherein Vc and Vt are the mean tumor volume of control and treated groups at the end of the study respectively, and Vc0 and Vt0 are the mean tumor volume of control and treated groups at the start respectively. The results are in the following Table 7 and FIG. 1: […]
# [6] = Balb/c mouse (female), 3 mg/kg, iv
# [7] = Balb/c mouse (female), 10 mg/kg, po
# Sequence of HIS-KRAS(G12C) (P01116 other isoform, or with tags, fused parts or gaps G12C): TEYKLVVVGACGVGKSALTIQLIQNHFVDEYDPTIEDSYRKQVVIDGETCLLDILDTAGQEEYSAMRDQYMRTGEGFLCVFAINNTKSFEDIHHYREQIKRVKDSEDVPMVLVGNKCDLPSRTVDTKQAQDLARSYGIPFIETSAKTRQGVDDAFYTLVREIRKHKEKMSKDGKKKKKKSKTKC
smiles,measurement,setting,value
"C=CC(=O)N1CCN(c2nc(=O)n(-c3c(C)ccnc3C(C)C)c3nc(-c4c(N)c(F)c(F)c(F)c4F)c(F)cc23)[C@@H](C)C1 (atropisomer, axis not shown; (M)) [Compound 2-1, (M)-4-((S)-4-acryloyl-2-methylpiperazin-1-yl)-7-(2-amino-3,4,5,6-tetrafluorophenyl)-6-fluoro-1-(2-isopropyl-4-methylpyridin-3-yl)pyrido[2,3-d]pyrimidin-2(1H)-one]",IC50,"[1]; GDP-loaded HIS-KRAS(G12C), 1 hour pre-incubation, TR-FRET",1.19 nM
same,Inhibitory activity relative to the control compound Amg-510,[1]; SOS1 catalyzed nucleotide exchange assay,about 2 times
same,CL,[2]; [6],38.9 mL/min/kg
same,Vss,[2]; [6],1.28 L/kg
same,AUC0-24h,[2]; [7],2618 ng·h/mL
same,Cmax,[2]; [7],2440 ng/mL
same,Oral BA (F %),[2]; [7],58.9%
same,Pharmacokinetic properties in words,"[2]; mouse model, 3 mg/kg iv and 10 mg/kg po",good pharmacokinetic properties
same,Pharmacokinetic properties in words,"[3]; beagle dog model, compared with Amg-510",excellent pharmacokinetic properties
same,CL,[3]; female,4.40 mL/min/kg
same,VSS,[3]; female,0.295 L/kg
same,AUC0-24h,[3]; female,5022 ng·h/mL
same,Cmax,[3]; female,2330 ng/mL
same,Oral BA (F %),[3]; female,44.3%
same,CL,[3]; male,4.15 mL/min/kg
same,VSS,[3]; male,0.255 L/kg
same,AUC0-24h,[3]; male,7308 ng·h/mL
same,Cmax,[3]; male,4080 ng/mL
same,Oral BA (F %),[3]; male,60.9%
same,AUC0-24 h relative to the control compound Amg-510,[3]; female beagle dog,more than 12 times
same,AUC0-24 h relative to the control compound Amg-510,[3]; male beagle dog,more than 3 times
same,CL,[4]; female,8.20 mL/min/kg
same,VSS,[4]; female,0.507 L/kg
same,AUC0-24h,[4]; female,2494 ng·h/mL
same,Cmax,[4]; female,1060 ng/mL
same,Oral BA (F %),[4]; female,41.2%
same,CL,[4]; male,8.26 mL/min/kg
same,VSS,[4]; male,0.555 L/kg
same,AUC0-24h,[4]; male,3253 ng·h/mL
same,Cmax,[4]; male,1580 ng/mL
same,Oral BA (F %),[4]; male,54.1%
same,AUC0-24 h relative to the control compound Amg-510,[4]; female cynomolgus monkey,more than 10 times
same,AUC0-24 h relative to the control compound Amg-510,[4]; male cynomolgus monkey,more than 15 times
same,Pharmacokinetic properties in words,[4]; monkey model,excellent pharmacokinetic properties
same,Tumor response in words,[5]; Table 7 and FIG. 1,regression of the tumor has been observed
same,Tumor volume at the end (Day 21),"[5]; female BALB/c nude mice, Day 21",27 mm^3
same,Tumor volume at the start,"[5]; female BALB/c nude mice, baseline",192 mm^3
same,TGI %,"[5]; female BALB/c nude mice, end of study (Day 21)",110%
